This note sets out measurements from ChEMBL document CHEMBL1147394, “Zaragozic acids D and D2: potent inhibitors of squalene synthase and of Ras farnesyl-protein transferase” (J Nat Prod, 1993).

One test addresses T1, Squalene synthase (Rattus norvegicus, UniProt Q02769).
T1 sequence (Q02769 whole entry): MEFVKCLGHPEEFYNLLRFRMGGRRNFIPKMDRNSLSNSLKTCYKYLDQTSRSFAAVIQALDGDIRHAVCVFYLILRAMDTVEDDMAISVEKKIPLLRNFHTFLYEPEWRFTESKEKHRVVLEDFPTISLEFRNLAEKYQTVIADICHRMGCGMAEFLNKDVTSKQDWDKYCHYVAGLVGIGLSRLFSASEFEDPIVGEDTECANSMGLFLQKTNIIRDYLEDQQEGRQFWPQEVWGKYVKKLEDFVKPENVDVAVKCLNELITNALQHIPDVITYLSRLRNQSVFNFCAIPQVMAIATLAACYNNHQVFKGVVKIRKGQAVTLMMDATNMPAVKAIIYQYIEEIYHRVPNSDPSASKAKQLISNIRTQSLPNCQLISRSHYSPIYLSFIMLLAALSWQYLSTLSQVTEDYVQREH
Description: Inhibition of rat liver squalene synthase by liqiud scintillation counting.

Test [1] in a line: Inhibition of bovine Ras FPTase. On the set-up: species or system Bos taurus.

In the case of `C/C=C/CCCC/C=C/CCCCC(=O)O[C@@H]1[C@@H](O)[C@@]2(CCC(C)C(O)C(C)C/C=C/c3ccccc3)O[C@H](C(=O)O)[C@@](O)(C(=O)O)[C@]1(C(=O)O)O2` (some centres undefined) [ZARAGOZIC ACID B], the IC50 amounted to 0.0002 µM against Squalene synthase and 1 µM in test [1]. The like results for `CC(=O)O[C@H](CCC[C@]12O[C@H](C(=O)O)[C@@](O)(C(=O)O)[C@](C(=O)O)(O1)[C@H](OC(=O)CC/C=C/[C@H](C)CCCc1ccccc1)[C@H]2O)[C@H](C)Cc1ccccc1` [ZARAGOZIC ACID C] were, in that order, 0.0004 µM and 0.15 µM.

On to `CCCCCCCCCC(=O)O[C@@H]1[C@@H](O)[C@@]2(CCCC(OC(C)=O)C(C)C/C=C/c3ccccc3)O[C@H](C(=O)O)[C@@](O)(C(=O)O)[C@]1(C(=O)O)O2` (some centres undefined) [ZARAGOZIC ACID D2], for which the IC50 against Squalene synthase stood at 0.002 µM; in test [1], 0.1 µM. The like results for `CCCCCCCC(=O)O[C@@H]1[C@@H](O)[C@@]2(CCCC(OC(C)=O)C(C)C/C=C/c3ccccc3)O[C@H](C(=O)O)[C@@](O)(C(=O)O)[C@]1(C(=O)O)O2` (some centres undefined) [ZARAGOZIC ACID D] were, in that order, 0.006 µM and 0.1 µM. Regarding `C=C(CC[C@]12O[C@H](C(=O)O)[C@@](O)(C(=O)O)[C@](C(=O)O)(O1)[C@H](OC(=O)/C=C/[C@@H](C)C[C@@H](C)CC)[C@H]2O)[C@@H](OC(C)=O)[C@H](C)Cc1ccccc1` [ZARAGOZIC ACIDS A], the midpoint of inhibition in test [1], the IC50, lay at 0.25 µM. This lies in the sub-micromolar range.

The IC50 is the concentration that inhibits the measured activity by half. A high value points to lower potency.
